Patent US11447479B2, “Compounds active towards nuclear receptors” (NUEVOLUTION A/S, priority 2019, dated 2022)

Experiments:
RORγ = target: T1, RORγ (Homo sapiens, UniProt P51449); experiment: RORγ Reporter Assay (Gal4); type: cell-based; conditions: HEK293 co-transfected with RORγ LBD-Gal4 and luciferase reporter, 24 h incubation, absolute IC50; read-out: IC50
T1 construct: Gal4 (galactose-responsive transcription factor); expressed in transfected cells; host or cells: HEK293
T1 sequence (P51449 269-508 limits assumed): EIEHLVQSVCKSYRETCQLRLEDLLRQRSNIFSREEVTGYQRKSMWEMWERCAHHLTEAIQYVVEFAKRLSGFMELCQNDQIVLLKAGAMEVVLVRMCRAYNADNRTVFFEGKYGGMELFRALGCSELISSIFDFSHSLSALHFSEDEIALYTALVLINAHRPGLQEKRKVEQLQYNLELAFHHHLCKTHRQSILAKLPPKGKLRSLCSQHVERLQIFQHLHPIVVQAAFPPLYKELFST
Description: RORγ Reporter Assay (Gal4)
The HEK293 cell line is co-transfected transiently with two plasmids, one with the RORγ ligand-binding domain fused to galactose-responsive transcription factor (Gal4), and the other with the luciferase reporter gene and Gal binding sites (UAS). This construction allows to determine the RORγ activity in a cellular system through the measurement of luminescence.
A suspension of RORγ reporter cells was dispensed into plates and cultured 2 h at 37° C. and 5% CO2. Media formulation consisted in DMEM/F-12 medium (Gibco) supplemented with 10% heat inactivated FBS (Sigma-Aldrich), non-essential aminoacids (Sigma-Aldrich), 2 mM Glutamax (Gibco) and 100 U/mF penicillin (Sigma-Aldrich). Dose-response curves with compounds were prepared in 100% DMSO and further diluted […] in culture medium. Compound solutions were added to the plate containing cells (final DMSO concentration of 0.1%) and incubated for 24 h at 37° C. and 5% CO2. Luciferase detection reagent was added to each well, and relative light units […] were quantified from each assay well using a plate reading luminometer.
Values of average RFU±S.D. were computed for all treatment sets, followed by the calculations of percent-reduction of RORγ activity in response to respective test compound. The following formula was used: activity=100*[1−[x test compound/average vehicle]where the theoretical minimum reduction (0% reduction).

Th17 cells = experiment: Th17 assay (IL-17 in supernatants of differentiating human naive CD4+ T cells, ELISA); type: cell-based; conditions: 168 h, Th17 differentiation for seven days with test compound, IL-17 levels in supernatants by ELISA
Description: Th17 Assay (Another Suitable Assay)
The following modifications were made to the manufacturer's protocol: 1) Incubation with Biotin-Antibody Cocktail and Anti-Biotin MicroBeads was prolonged to 30 minutes, and 2) Cells were washed with 40 mL of Miltenyi buffer. Differentiation of Th17 cells in anti-CD3 (BD Pharmingen, 5 μg/ml) coated 96-well plates (400,000 cells/well, 160 μl RPMI1640+10% Fetal Bovine Serum) containing 5 μg/ml anti-CD28 (BD Pharmingen), 10 ng/ml IL-2 (R&D Systems), 2.5 ng/ml TGFβ-1 (R&D Systems), 20 ng/ml IL-1β (R&D Systems), 20 ng/ml IL-6 (R&D Systems), 30 ng/ml IL-23 (R&D Systems), 2.5 μg/ml anti-IL-4 (R&D Systems) and 1 μg/ml anti-IFNγ (R&D Systems) and with test compound during the entire differentiation (or vehicle, 0.1% DMSO for control). Test compounds were tested in triplicates, diluted 1000-fold in medium (final DMSO concentration is 0.1%). Incubated for seven days at 37° C., 5% CO2, 95% humidity, and 2-fluoro-4′-[[4-(4-pyridinylmethyl)-1-piperazinyl]methyl]-α,α-bis(trifluoromethyl)-[1,1′-biphenyl]-4-methanol (SR2211 Calbiochem, Cat. No. 557353) was used as positive control. As negative control, cells were differentiated into Th0 using 5 μg/ml anti-CD28 (BD Pharmingen), 10 ng/ml IL-2 (R&D Systems), 2 μg/ml anti-IL4 (R&D Systems) and 2 μg/ml anti-IFNγ (R&D Systems) are negative control. IL-17 levels in supernatants were measured with ELISA (R&D Systems).

[1] = test system: Collagen-induced arthritis; experiment: Collagen-Induced Arthritis (CIA) study; type: in vivo; conditions: 10 mpk po bid, male DBA/1J mice
Description: Collagen-Induced Arthritis (CIA) Study Collagen-induced arthritis is an animal model of rheumatoid arthritis used to evaluate the efficacy of test compounds. CIA was induced at Washington Biotechnology Inc. (Baltimore) in male DBA/1J mice (Jackson Laboratories) by subcutaneous injection at the base of the tail with 50 μl of a bovine collagen/complete Freund's adjuvant emulsion. After 21 days, the mice were further boosted by a further subcutaneous injection of 50 μl of a collagen/incomplete Freund's adjuvant emulsion. For treatment, compound or vehicle (2% DMSO, 10% HP—β-CD in MilliQ water) was given orally twice daily at various doses selected from 3, 10, 30 mg/kg, beginning at the day of CIA induction (Prophylactic setting), or after disease initiation (at day 27, therapeutic setting). Treatment lasted until day 41, and the animals were scored three times weekly. Each paw was scored and the sum of all four scores was recorded as the Arthritic Index (AI). The maximum possible AI was 16. 0=no visible effects of arthritis; 1=edema and/or erythema of one digit; 2=edema and/or erythema of 2 joints; 3=edema and/or erythema of more than 2 joints; 4=severe arthritis of the entire paw and digits including limb deformation and ankylosis of the joint. […] At 10 mpk po bid, H6-13-2 Arthritis Index (AI) decreased with 83% of the effect of the mouse aIL-17A antibody. […]

plasma IL-17A = experiment: In vivo IL-17A induction in anti-CD3 model in mice; conditions: oral gavage twice daily day 0 to day 3, plasma IL-17A by ELISA, C57BL/6JRj mice
Description: In Vivo IL-17A Induction in Anti-CD3 Model in Mice
Male C57BL/6JRj mice (7 week old) were purchased from Janvier Labs and housed at the animal facilities of Almirall throughout the study. Animals were allowed to condition for 5 days in their new environment at 22° C.±2° C., 55%±10% relative humidity and 12 h:12 h light:dark cycles. Animals were housed in polycarbonate cages, with free access to water and non-purified stock diet (2014 Teklad Global 14% Protein Rodent Maintenance Diet, Envigo) during the full course of the studies. Care of animals was undertaken in compliance with the European Committee Directive 2010/63/EU, and the Catalan and Spanish law. […]
Plasma levels of IL-17A were measured by ELISA (R&D Systems) according to the manufacturer's instruction. Results were calculated as the percentage of reduction of plasma IL-17A versus the difference between non-induced and anti-CD3e induced groups through the formula: inhibition=100*[1−[(x−mean non-induced)/(mean control vehicle−mean non-induced)]]. The IL-17A inhibition for each treatment can be expressed as the mean for each treatment group±S.E.M. Statistical analysis of data were conducted with one-way ANOVA followed by Dunnett's multiple comparisons test when appropriate. […]

IC50 (RORγ) | IC50 (Th17 cells) | SMILES | Arthritis Index (AI) decrease as % of the effect of the mouse aIL-17A antibody [1] | Inhibition of IL-17A (%) at 3 mg/kg (plasma IL-17A)
54 nM | 93 nM | NC(=O)CN1CC[C@H](CNc2ncnc(N3CCOC[C@@H]3c3ccc(C(F)(F)F)cn3)c2F)[C@@H](F)C1 (single isomer, unassigned) [Example H6-13-2, 2-((3R*,4R*)-3-fluoro-4-(((5-fluoro-6-((S)-3-(5-(trifluoromethyl)pyridin-2-yl)morpholino)pyrimidin-4-yl)amino)methyl)piperidin-1-yl)acetamide] | 83% | –
70 nM | 161 nM | NC(=O)CN1CCC(CNc2ncnc(N3CCOC[C@@H]3c3ccc(C(F)(F)F)cc3)c2F)CC1 [Example H6-5, (S)-2-(4-(((5-fluoro-6-(3-(4-(trifluoromethyl)phenyl)morpholino)pyrimidin-4-yl)amino)methyl)piperidin-1-yl)acetamide] | – | –
26 nM | – | NC(=O)CN1CC[C@H](CNc2ncnc(N3CC(F)(F)C[C@@H]3c3ccc(C(F)(F)F)cc3)c2F)[C@@H](O)C1 (single isomer, unassigned) [Example H6-17-1, 2-((3R*,4R*)-4-(((6-((R)-4,4-difluoro-2-(4-(trifluoromethyl)phenyl)pyrrolidin-1-yl)-5-fluoropyrimidin-4-yl)amino)methyl)-3-hydroxypiperidin-1-yl)acetamide] | – | 67%
66 nM | 82 nM | NC(=O)CN1CCC(CNc2ncnc(N3CCOC[C@@H]3c3ccc(C(F)(F)F)cn3)c2F)C(F)(F)C1 (single isomer, unassigned) [Example H6-11-2, 2-((R*)-3,3-difluoro-4-(((5-fluoro-6-((S)-3-(5-(trifluoromethyl)pyridin-2-yl)morpholino)pyrimidin-4-yl)amino)methyl)piperidin-1-yl)acetamide] | 61% | –
